The values that follow come from ChEMBL document CHEMBL3352246, “Design and synthesis of novel 5-(3,4,5-trimethoxybenzoyl)-4-aminopyrimidine derivatives as potent and selective phosphodiesterase 5 inhibitors: scaffold hopping using a pseudo-ring by intramolecular hydrogen bond formation” (Bioorg Med Chem Lett, 2014).

The structures appear in SMILES notation.

The target of assay [1] is cGMP-specific 3',5'-cyclic phosphodiesterase (Canis lupus familiaris, UniProt O77746). As to the kind of experiment: Inhibition of canine lung PDE5 using [3H]cGMP substrate by radiolabeled nucleotide method.
Assay [2] in a line: Inhibition of light activated bovine retina PDE6 using [3H]cGMP substrate by radiolabeled nucleotide method. Details: species or system Bos taurus.
Assay [3] is described as follows: Selectivity index, ratio of IC50 for light activated bovine retina PDE6 to IC50 for canine lung PDE5.
Assay [4] has as its system Corpus cavernosum. As to the kind of experiment: Relaxant activity in rabbit corpus cavernosum assessed as reduction in phenyepinephrine-induced contraction. The class given is functional, tissue-based. Conditions: Oryctolagus cuniculus.
A short description of assay [5]: Selectivity index, ratio of IC50 for trypsin activated bovine retina PDE6 to IC50 for PDE5 (unknown origin).
In assay [6] the target is cGMP-specific 3',5'-cyclic phosphodiesterase (Homo sapiens, UniProt O76074). As to the kind of experiment: Inhibition of PDE5 (unknown origin).
Assay [7] in a line: Selectivity index, ratio of IC50 for light activated bovine retina PDE6 to IC50 for PDE5 (unknown origin).

As to `COC(=O)c1nc(N2CCC(O)CC2)c2cc(OCc3ccccc3)ccc2c1-c1cc(OC)c(OC)c(OC)c1`, the IC50 in assay [1] was 2 nM; in assay [2] it was 590 nM.

`COc1ccc(CNc2nc(N3CCc4ccccc4C3)ncc2C(=O)c2cc(OC)c(OC)c(OC)c2)cc1Cl` showed an IC50 in assay [1] of 0.053 nM. In addition, in assay [3], the Ratio IC50 worked out at 3200. Further, the EC50 in assay [4] is greater than 100 nM.

`COC(=O)c1ncc2cc(OCc3ccccn3)ccc2c1-c1cc(OC)c(OC)c(OC)c1`: the IC50 was 34 nM in assay [1] and greater than 10000 nM in assay [2].

Consider `COC(=O)c1nc(NCc2ccc(OC)c(Cl)c2)c2cc(OCc3ccccc3)ccc2c1-c1cc(OC)c(OC)c(OC)c1`, for which the IC50 is 3.5 nM in assay [1] and greater than 10000 nM in assay [2].

The compound `COc1ccc(CNc2nc(OCc3ccccn3)ncc2C(=O)c2cc(OC)c(OC)c(OC)c2)cc1Cl` showed an IC50 in assay [1] of 0.13 nM. Moreover, the Ratio IC50 in assay [3] is 2400. Also, the EC50 in assay [4] is 53 nM.

Compound `COc1ccc(CNc2nc(N3CCOCC3)ncc2C(=O)c2cc(OC)c(OC)c(OC)c2)cc1Cl` had an IC50 in assay [1] of 1.5 nM. Also, the Ratio IC50 in assay [3] was 6700. Moreover, the 50% effective concentration (EC50) in assay [4] is greater than 100 nM.

On to `COc1ccc(CNc2nc(OCc3ncccn3)ncc2C(=O)c2cc(OC)c(OC)c(OC)c2)cc1Cl`, for which the IC50 in assay [1] was 3.4 nM. Moreover, the Ratio IC50 in assay [3] is 560. Besides, the concentration for a half-maximal effect (EC50) in assay [4] was 3.1 nM.

For the compound `COc1ccc(CNc2nc(N(C)CCO)ncc2C(=O)c2cc(OC)c(OC)c(OC)c2)cc1Cl`, the IC50 in assay [1] is 2.7 nM. The Ratio IC50 in assay [3] is greater than 3700. In assay [4], the EC50 is 29 nM.

On to `COc1ccc(CNc2cc(OCc3ccccn3)ccc2C(=O)c2cc(OC)c(OC)c(OC)c2)cc1Cl`, for which the IC50 in assay [1] was found to be 0.66 nM. The Ratio IC50 in assay [3] worked out at 18000. In assay [4], the EC50 is greater than 100 nM.

As for `COc1ccc(CNc2nc(N3CCCCC3)ncc2C(=O)c2cc(OC)c(OC)c(OC)c2)cc1Cl`, the IC50 in assay [1] turned out to be 0.74 nM. The Ratio IC50 in assay [3] turned out to be 2000.

With `COc1ccc(CN(C)c2nc(OCc3ccccn3)ncc2C(=O)c2cc(OC)c(OC)c(OC)c2)cc1Cl`, the half-inhibitory concentration (IC50) in assay [1] is 5 nM.

In the case of `COc1ccc(COc2nc(OCc3ccccn3)ncc2C(=O)c2cc(OC)c(OC)c(OC)c2)cc1Cl`, in assay [1], it took 1.5 nM to reach half-maximal inhibition (IC50).

Regarding `COCCOc1ncc(C(=O)c2cc(OC)c(OC)c(OC)c2)c(NCc2ccc(OC)c(Cl)c2)n1`, the IC50 in assay [1] stood at 1.7 nM. Besides, the Ratio IC50 in assay [3] was found to be 2200. Besides, in assay [4], the EC50 is 10 nM.

`COc1ccc(CNc2nc(OCc3ccccc3)ncc2C(=O)c2cc(OC)c(OC)c(OC)c2)cc1Cl` showed an IC50 in assay [1] of 0.38 nM. Moreover, in assay [3], the Ratio IC50 came to 1600. In assay [4], the EC50 was greater than 100 nM.

In turn, `COc1ccc(CNc2nc(N3CCOC(CO)C3)ncc2C(=O)c2cc(OC)c(OC)c(OC)c2)cc1Cl` (stereo not given) returned an IC50 in assay [1] of 1.8 nM. Moreover, the Ratio IC50 in assay [3] is 2800. Moreover, the concentration for a half-maximal effect (EC50) in assay [4] stood at 11 nM.

Consider `COC(=O)c1c(-c2cc(OC)c(OC)c(OC)c2)c2ccc(OCc3ccccn3)cc2c(=O)n1-c1ccc(N)cc1`, for which the Ratio IC50 in assay [5] was 32; in assay [7], 650. It took 1 nM to reach half-maximal inhibition in assay [6] (IC50).

The term IC50 denotes the concentration at which inhibition is half-maximal. What is called EC50 is the concentration giving half of the maximal effect.
